# Assay results published in BindingDB's records for doi:10.1016/s0960-894x(02)00489-4 (University of Antwerp (Uia), 2002).
# Where a SMILES comes first, the peptide text is derived from it.
# Target: T1, Glutathionylspermidine synthase (Crithidia fasciculata, UniProt P90518)
# T1 sequence (P90518 whole entry): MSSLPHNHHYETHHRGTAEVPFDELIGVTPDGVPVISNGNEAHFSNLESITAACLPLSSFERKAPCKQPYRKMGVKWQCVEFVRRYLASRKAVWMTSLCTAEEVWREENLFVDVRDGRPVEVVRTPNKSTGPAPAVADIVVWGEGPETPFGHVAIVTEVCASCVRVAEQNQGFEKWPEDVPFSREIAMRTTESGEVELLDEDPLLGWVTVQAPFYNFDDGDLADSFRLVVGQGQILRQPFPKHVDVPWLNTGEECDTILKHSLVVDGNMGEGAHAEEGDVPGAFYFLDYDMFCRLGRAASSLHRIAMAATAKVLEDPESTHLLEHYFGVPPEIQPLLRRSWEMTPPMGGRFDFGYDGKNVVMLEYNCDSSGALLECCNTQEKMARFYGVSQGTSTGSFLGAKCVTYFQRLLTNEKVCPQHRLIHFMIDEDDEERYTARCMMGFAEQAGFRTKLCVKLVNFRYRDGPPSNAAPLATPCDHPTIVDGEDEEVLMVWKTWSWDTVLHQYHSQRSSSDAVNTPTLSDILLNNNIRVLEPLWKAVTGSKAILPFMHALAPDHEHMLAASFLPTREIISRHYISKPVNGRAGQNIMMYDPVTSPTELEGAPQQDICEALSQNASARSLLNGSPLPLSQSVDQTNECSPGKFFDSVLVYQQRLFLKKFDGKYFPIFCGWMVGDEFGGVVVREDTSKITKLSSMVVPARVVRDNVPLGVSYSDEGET
# Experiment: Inhibitory activity against amidase free Glutathionylspermidine Synthetase mutant (C79A)
smiles,measurement,value
CC(C)C[C@H](NC(=O)CC[C@H](N)C(=O)O)C(=O)NCC(N)=O [2-Amino-4-[1-(carbamoylmethyl-carbamoyl)-3-methyl-butylcarbamoyl]-butyric acid] (HELM PEPTIDE1{[gGlu].L.G.[am]}$$$$V2.0),IC50,> 2 µM
